In brackets after ≈: the same amount, converted by molar mass.
Experiments:
[1] = test system: Lactobacillus plantarum CHCC14255; experiment: D-cycloserine resistance assay (OD600 growth in GJ-5 medium); type: cell-based; conditions: Lactiplantibacillus plantarum, strain CHCC14255, 24 hours growth at 18° C., vs 0 μg/ml D-cycloserine, read-out: amount of D-cycloserine that reduces the OD600 measured growth with 50%
Method: (§1) Medium: The medium is the known Grape Juice GJ-5 medium described in column 20, lines 10 to 20 of U.S. Pat. No. 7,112,346 (Chr. Hansen A/S).
(§2) As described in lines 10 to 20 of U.S. Pat. No. 7,112,346—the GJ-5 medium has the following composition: • Grape juice concentrate 70.0 g • Yeast paste 30.0 g • Tween 80 0.5 g • MnSO4H2O 0.1 g • Tap water 900.0 g
(§3) A Lactobacillus plantarum strain of interest is inoculated into 10 ml GJ-5 medium containing one of the following amounts of D-cycloserine: 0 μg/ml, 10 μg/ml, 20 μg/ml, 30 μg/ml, 50 μg/ml, 70 μg/ml, 100 μg/ml, 150 μg/ml or 200 μg/ml of D-cycloserine. The strain is grown 24 hours at 18° C. in the GJ-5 medium with the different concentrations of D-cycloserine.
(§4) After the 24 hours growth is OD600 measured for all samples.

[2] = test system: Lactobacillus plantarum CHCC14254; experiment: as above; type: cell-based; conditions: Lactiplantibacillus plantarum, strain CHCC14254, 24 hours growth at 18° C., vs 0 μg/ml D-cycloserine, read-out: amount of D-cycloserine that reduces the OD600 measured growth with 50%
Method: as §1, §2, §3, §4

[3] = test system: Lactobacillus plantarum CHCC14158; experiment: as above; type: cell-based; conditions: Lactiplantibacillus plantarum, strain CHCC14158, 24 hours growth at 18° C., vs 0 μg/ml D-cycloserine, read-out: amount of D-cycloserine that reduces the OD600 measured growth with 50%
Method: as §1, §2, §3, §4

[4] = test system: Lactobacillus plantarum CHCC14255; conditions: strain CHCC14255; GJ-5 medium with 11% ethanol, 3 days incubation at 25° C.
Method: (§5) Medium: The medium is the standard GJ-5 medium as used in Example 1 above.
(§6) A Lactobacillus plantarum cell that has an improved resistance towards ethanol as discussed herein—is herein defined as a Lactobacillus plantarum cell that can grow to an OD600 of at least 0.8 after 3 days incubation at 25° C. in the GJ-5 medium with 11% ethanol.

[5] = test system: Lactobacillus plantarum CHCC14254; conditions: strain CHCC14254; GJ-5 medium with 11% ethanol, 3 days incubation at 25° C.
Method: as §5, §6

[6] = test system: Lactobacillus plantarum CHCC14158; conditions: strain CHCC14158; GJ-5 medium with 11% ethanol, 3 days incubation at 25° C.
Method: as §5, §6

Row | Compound | IC50 [1] [µg/mL] | IC50 [2] [µg/mL] | IC50 [3] [µg/mL] | OD600 reached by growth in presence of ethanol [4] | OD600 reached by growth in presence of ethanol [5] | OD600 reached by growth in presence of ethanol [6]
1 | N[C@@H]1CON=C1O [D-cycloserine, D-4-amino-isoxazolidone] | ~100 (≈ 979 µM) | ~100 (≈ 979 µM) | 60 to 65 (≈ 588 to 637 µM) | – | – | –
2 | CCO [ethanol] | – | – | – | more than 1 | at least 0.8 | around 0.65
